From patent publication US4772704A, “2,5-disubstituted-4(3H)-pyrimidones having histamine H2 -receptor antagonist activity” (Bristol-Myers Company, priority 1983, dated 1988)

Key:
[1] = cited from earlier work
[2] = test system: histamine-stimulated gastric acid output; assay: Gastric Antisecretory Activity In The Heidenhain Pouch Dog; format: in vivo, female dogs
Experimental: Determination of Gastric Antisecretory Activity In The Heidenhain Pouch Dog
Prior to surgery, hematology and blood chemistry profiles are obtained and an assessment made as to the general health of selected female dogs. Dogs are vaccinated with Tissue Vax 5 (DHLP--Pitman-Moore) and housed in general animal quarters for four weeks' observation so incipient diseases may become apparent. Dogs are fasted with water ad libitum 24 hours prior to surgery.
Anesthesia is induced with Sodium Pentothal (Abbott) 25-30 mg/kg iv. Subsequent anesthesia is maintained with methoxyflurane (Pitman-Moore). A midline linea alba incision from xiphoid to umbilicus provides good exposure and ease of closure. The stomach is pulled up into the operative field, the greater curvature stretched out at multiple points and clamps placed along the selected line of incision. The pouch is made from the corpus of the stomach so that true parietal cell juice is obtained. About 30% of the corpus volume is resected. The cannula is made of light-weight,biologically-inert material such as nylon or Delrin with dimensions and attachments after DeVito and Harkins (J. Appl. Physiol., 14, 138 (1959). Post operatively, dogs are medicated with antibiotics and an analgesic. They are allowed 2-3 months for recovery. Experiments are carried out in the following way: Dogs are fasted overnight (≈18 hours) with water ad libitum prior to each experiment. The dogs are placed in a sling and a saphenous vein cannulated for drug administration. Histamine as the base (100 μg/kg/hr) and chlorpheniramine maleate (0.25 mg/kg/hr) are infused continuously (in a volume of 6 ml/hr) with a Harvard infusion pump.
Ninety minutes' infusion are allowed for the dogs to reach a steady state of acid output. At this time the drug or normal saline (control) is administered concomitantly with the secretagogue in a volume of 0.5 ml/kg over a 30 second period. When oral studies are to be carried out, the drug is administered via gastric gavage in a volume of 5 ml/kg. Infusion of the secretagogue is continued and 15 minute samples of the gastric juice are taken for 4.5 hours. Each sample is measured to the nearest 0.5 ml and titratable acidity is determined by titrating a 1 ml sample to pH 7.0 with 0.2N NaOH, using an Autoburet and an electrometric pH meter (Radiometer). Titratable acid output is calculated in microequivalents by multiplying the volume in milliliters by the acid concentration in milliequivalents per liter.
Results are expressed as percent inhibition relative to control readings and the response is the average for five dogs at that dose level.

histamine H2-receptor [3] = details: relative to burimamide or metiamide; cited from earlier work
gastric acid secretion = assay: Gastric Antisecretory Activity in the Gastric Fistula Rat; format: in vivo, Male Long Evans rats; details: sc
Experimental: Determination of Gastric Antisecretory Activity in the Gastric Fistula Rat Male Long Evans rats weighing about 240-260 grams at the time of cannula implantation are used. […] The fistula components are designed and the operative procedure is carried out exactly as described in the above reference. Post operatively the animals are individually housed in solid bottom cages with sawdust and are allowed food and water ad libitum throughout the entire recovery period. Animals are not used for test purposes for at least 15 days after the operative procedure. The animals are fasted but allowed water ad libitum for 20 hours before the testing procedure is to begin. […] The catheter is then screwed into the cannula in place of the plugging screw and the rat is placed in a clear plastic rectangular cage measuring 40 cm long, 15 cm wide and 13 cm high. The bottom of the cage has a slit approximately 1.5 cm wide and 25 cm long running down the center to accommodate the catheter which hangs through it. […] Chem. Path. […] Titratable acid output is calculated in microequivalents by multiplying the volume in milliliters by the acid concentration in milliequivalents per liter. Results are expressed as percent inhibition relative to control readings. Dose response curves are constructed and ED50 values are calculated by regression analyses. […]

histamine H2-receptor [4] = details: man; cited from earlier work

CNC(=S)NCCCCc1cnc[nH]1 [Burimamide]
oral absorption [1]: poor

CNC(=NC#N)NCCSCc1nc[nH]c1C [Cimetidine, reference compound]
% Maximum Inhibition ([2]; Intravenous, dose 6.0 μmoles/kg, Heidenhain pouch dog): 94% | % Maximum Inhibition ([2]; Oral, dose 12.0 μmoles/kg, Heidenhain pouch dog): 95% | potency or effectiveness as histamine H2-antagonist, relative (histamine H2-receptor [3]): as effective an histamine H2 -antagonist as metiamide

Nc1cnc(NCCCOc2cccc(CN3CCCCC3)c2)[nH]c1=O [Example 2, 5-Amino-2-[3-(3-piperidinomethylphenoxy)propylamino]-4(3H)-pyrimidone]
% Maximum Inhibition ([2]; Intravenous, single dose 0.094 μmoles/kg, 5 dogs): 90% | Potency Ratio [cimetidine = 1.0] ([2]; Intravenous): 50 | % Maximum Inhibition ([2]; Oral, single dose 0.5 μmoles/kg, 5 dogs): 86% | Potency Ratio [cimetidine = 1.0] ([2]; Oral): 20 | duration of antisecretory action relative to cimetidine ([2]; both the intravenous and oral dog models): prolonged duration of action relative to cimetidine | ED50 (gastric acid secretion): 0.15 µmol/kg | Potency Ratio [cimetidine = 1.0] (gastric acid secretion; cimetidine = 1.0): 26

CNC(=S)NCCSCc1nc[nH]c1C [Metiamide]
potency or effectiveness as histamine H2-antagonist, relative (histamine H2-receptor [3]): more potent than burimamide | oral activity (histamine H2-receptor [4]): orally active in man
